According to ChEMBL document CHEMBL1201862, “PubChem BioAssay data set” (2004):
The source made the active and inactive calls.

What was measured:
[1] = test system: Cryptococcus neoformans; assay: PubChem AID 686997; format: functional, organism-based
[2] = test system: HeLa; assay: viability loss in HeLa cells – cell-based, ATP luminescence, cherry-pick samples, cytotoxicity control, dose response (AID 687004); format: functional; conditions: Homo sapiens
[3] = target: Paired box protein Pax-8 (Homo sapiens, UniProt Q06710); assay: PAX8 transcriptional activity inhibition in RMG-I – RMG-I cells, luciferase, cherry-pick, dose response (AID 687027); format: functional, cell-based;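 also: luciferase reporter driven by Pax8 target thyroperoxidase promoter measured by SteadyGlo luminescence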
[4] = OV-90 cell viability loss – plate reader, dry powder, SA8, PAX8 inhibitor project, dose response (AID 743149); format: functional, cell-based
[5] = PAX8-dependent cell viability loss – plate reader, dry powder, dose response (AID 743049); format: functional, cell-based
[6] = viability loss in mouse NIH3T3 cells – cell-based, CellTiter-Glo luminescence, dry powder, cytotoxicity control for PglD inhibitor project, dose response (AID 652044); format: functional
[7] = A2780 cell killing – plate reader, dry powder samples, cytotoxicity control, dose response (AID 743046); format: functional, cell-based
[8] = OVCAR-3 cell viability loss – plate reader, dry powder samples, PAX8 inhibitor project, dose response (AID 743044); format: functional, cell-based
[9] = IGROV1 cell killing – plate reader, dry powder samples, PAX8 inhibitor project, dose response (AID 743043); format: functional, cell-based; conditions: IGROV-1
[10] = general cell-killing toxicity readout – plate reader, dry powder samples, cytotoxicity control for PAX8 inhibitor project, dose response (AID 743021); format: functional, cell-based
[11] = A549 cell cytotoxicity, dose response, cytotoxicity control, plate reader, cherry-pick, antagonist series (AID 743412); format: functional, cell-based
[12] = inhibition of bursicon-driven LGR2 cAMP signaling – cell-based, HEK293, CRE-luciferase reporter, cherry pick, dose response (AID 743342); format: functional
[13] = inhibitors of non-replicating M. tuberculosis, dose response, luciferase, dry powder (AID 651619); format: functional; conditions: Mycobacterium tuberculosis
[14] = inhibitors of non-replicating M. tuberculosis, dose response, luciferase, dry powder (AID 651620); format: functional; conditions: Mycobacterium tuberculosis
[15] = growth inhibition of replicating M. tuberculosis, dose response, counter-screen, dry powder, IC90 (AID 651617); format: functional; conditions: Mycobacterium tuberculosis
[16] = target: Protein Wnt-3a (Mus musculus, UniProt P27467); assay: SAR analysis of small molecule antagonists of Gli-SUFU in a Wnt3a luminescent reporter assay.; format: functional
[17] = target: Kappa-type opioid receptor (Homo sapiens, UniProt P41145); assay: Late-stage fluorescence-based cell-based dose response assay for antagonists of kappa opioid receptor 1 (OPRK1).; format: functional
[18] = target: Mu-type opioid receptor (Homo sapiens, UniProt P35372); assay: Late-stage results from the probe development effort to identify antagonists of OPRK1: luminescence-based cell-based dose response OPRM1 counterscreen, Set 2.; format: functional
[19] = target: Delta-type opioid receptor (Homo sapiens, UniProt P41143); assay: Late-stage results from the probe development effort to identify antagonists of OPRK1: fluorescence-based cell-based dose response OPRD1 counterscreen, Set 2.; format: functional
[20] = target: Sphingosine 1-phosphate receptor 1 (Homo sapiens, UniProt P21453); assay: Late-stage counterscreen for antagonists of kappa opioid receptor 1 (OPRK1): fluorescence-based cell-based dose response assay to identify antagonists of Sphingosine 1-Phosphate Receptor 1 (S1P1).; format: functional
[21] = target: Potassium channel subfamily K member 9 (Homo sapiens, UniProt Q9NPC2); assay: KCNK9 flux blockade, concentration-response – cell-based, FluxOR thallium flux, selectivity assay for TASK1 inhibitor project, SAR follow-up (AID 652211); format: functional;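 also: potency is for inhibitors of the channel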
[22] = target: Potassium channel subfamily K member 3 (Homo sapiens, UniProt O14649); assay: inhibition of human KCNK3 channel flux – CHO cells, FluxOR thallium flux, SAR follow-up (AID 652212); format: functional
[23] = target: Albumin (Bos taurus, UniProt P02769); assay: Counterscreen for inhibitors of T-cell receptor (TCR)-CD3 interaction: Fluorescence-based biochemical high throughput dose response assay to identify inhibitors of T-cell receptor (TCR)-CD3 interaction using a TAMRA-labeled BSA probe.; format: functional
Albumin, sequence (P02769 whole entry): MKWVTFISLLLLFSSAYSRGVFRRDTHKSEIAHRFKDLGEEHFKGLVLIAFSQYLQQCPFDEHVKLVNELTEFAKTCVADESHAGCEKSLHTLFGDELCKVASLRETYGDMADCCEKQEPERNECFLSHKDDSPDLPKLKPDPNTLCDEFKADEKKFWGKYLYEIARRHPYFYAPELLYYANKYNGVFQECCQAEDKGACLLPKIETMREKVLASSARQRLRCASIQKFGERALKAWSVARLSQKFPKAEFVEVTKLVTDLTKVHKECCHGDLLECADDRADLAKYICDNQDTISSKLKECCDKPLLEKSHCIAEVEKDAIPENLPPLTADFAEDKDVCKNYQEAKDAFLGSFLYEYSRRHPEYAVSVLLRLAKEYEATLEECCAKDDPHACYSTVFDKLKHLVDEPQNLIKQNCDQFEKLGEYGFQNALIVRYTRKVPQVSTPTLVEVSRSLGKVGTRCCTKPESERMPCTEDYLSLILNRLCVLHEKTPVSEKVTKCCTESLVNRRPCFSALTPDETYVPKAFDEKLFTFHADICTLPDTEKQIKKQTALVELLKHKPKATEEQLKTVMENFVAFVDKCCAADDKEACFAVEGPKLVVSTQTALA

Paired box protein Pax-8, sequence (Q06710 whole entry): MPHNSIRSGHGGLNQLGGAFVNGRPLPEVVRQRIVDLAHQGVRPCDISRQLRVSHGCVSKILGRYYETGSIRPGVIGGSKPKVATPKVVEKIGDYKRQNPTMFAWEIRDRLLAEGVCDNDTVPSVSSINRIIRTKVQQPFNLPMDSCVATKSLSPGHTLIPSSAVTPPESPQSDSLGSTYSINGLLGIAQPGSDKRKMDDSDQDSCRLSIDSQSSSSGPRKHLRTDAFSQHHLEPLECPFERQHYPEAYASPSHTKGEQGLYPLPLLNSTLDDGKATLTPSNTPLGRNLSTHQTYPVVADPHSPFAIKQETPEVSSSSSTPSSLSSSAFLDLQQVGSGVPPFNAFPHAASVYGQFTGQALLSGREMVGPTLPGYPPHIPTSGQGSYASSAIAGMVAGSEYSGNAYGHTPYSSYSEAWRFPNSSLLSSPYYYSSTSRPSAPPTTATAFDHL
Kappa-type opioid receptor, sequence (P41145 whole entry): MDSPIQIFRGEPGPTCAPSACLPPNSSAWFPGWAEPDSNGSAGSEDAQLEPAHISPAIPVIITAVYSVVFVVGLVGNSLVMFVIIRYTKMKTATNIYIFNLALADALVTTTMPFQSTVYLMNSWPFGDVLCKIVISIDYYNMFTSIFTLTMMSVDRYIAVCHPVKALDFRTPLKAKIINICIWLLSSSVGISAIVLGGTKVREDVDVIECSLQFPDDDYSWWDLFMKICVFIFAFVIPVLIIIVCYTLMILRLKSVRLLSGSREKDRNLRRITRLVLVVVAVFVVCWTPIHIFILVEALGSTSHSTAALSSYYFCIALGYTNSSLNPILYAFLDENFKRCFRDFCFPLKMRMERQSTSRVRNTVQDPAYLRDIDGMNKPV
Potassium channel subfamily K member 3, sequence (O14649 whole entry): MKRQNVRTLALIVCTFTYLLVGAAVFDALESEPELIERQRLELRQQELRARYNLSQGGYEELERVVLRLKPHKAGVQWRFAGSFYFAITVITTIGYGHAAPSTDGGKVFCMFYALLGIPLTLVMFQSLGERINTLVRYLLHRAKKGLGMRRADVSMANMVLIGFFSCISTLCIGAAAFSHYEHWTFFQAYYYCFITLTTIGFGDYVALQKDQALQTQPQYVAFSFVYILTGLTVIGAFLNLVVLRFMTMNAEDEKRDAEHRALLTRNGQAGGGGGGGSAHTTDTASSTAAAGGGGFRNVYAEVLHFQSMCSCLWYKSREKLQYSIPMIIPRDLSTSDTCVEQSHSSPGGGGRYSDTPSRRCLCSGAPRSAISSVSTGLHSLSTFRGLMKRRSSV
Mu-type opioid receptor, sequence (P35372 whole entry): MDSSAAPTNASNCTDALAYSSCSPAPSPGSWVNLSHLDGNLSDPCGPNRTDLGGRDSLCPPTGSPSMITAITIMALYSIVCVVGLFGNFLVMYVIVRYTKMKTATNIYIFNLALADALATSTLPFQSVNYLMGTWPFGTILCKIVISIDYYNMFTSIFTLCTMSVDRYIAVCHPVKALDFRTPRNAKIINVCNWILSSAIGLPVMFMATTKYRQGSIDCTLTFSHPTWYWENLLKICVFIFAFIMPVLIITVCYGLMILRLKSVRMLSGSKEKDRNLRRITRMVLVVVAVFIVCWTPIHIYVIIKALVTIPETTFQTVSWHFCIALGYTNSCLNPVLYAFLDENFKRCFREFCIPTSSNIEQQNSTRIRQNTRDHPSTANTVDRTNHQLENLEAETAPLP
Protein Wnt-3a, sequence (P27467 whole entry): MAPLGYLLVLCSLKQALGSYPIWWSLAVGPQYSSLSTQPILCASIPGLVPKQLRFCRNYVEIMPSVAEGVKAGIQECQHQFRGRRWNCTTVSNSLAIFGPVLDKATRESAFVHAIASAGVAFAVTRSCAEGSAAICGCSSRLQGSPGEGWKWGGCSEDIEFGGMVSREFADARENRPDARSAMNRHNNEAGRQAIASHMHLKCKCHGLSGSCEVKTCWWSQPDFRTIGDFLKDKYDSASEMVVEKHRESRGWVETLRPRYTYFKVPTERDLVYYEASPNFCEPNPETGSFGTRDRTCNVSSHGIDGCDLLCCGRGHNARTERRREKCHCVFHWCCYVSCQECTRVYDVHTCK
Potassium channel subfamily K member 9, sequence (Q9NPC2 whole entry): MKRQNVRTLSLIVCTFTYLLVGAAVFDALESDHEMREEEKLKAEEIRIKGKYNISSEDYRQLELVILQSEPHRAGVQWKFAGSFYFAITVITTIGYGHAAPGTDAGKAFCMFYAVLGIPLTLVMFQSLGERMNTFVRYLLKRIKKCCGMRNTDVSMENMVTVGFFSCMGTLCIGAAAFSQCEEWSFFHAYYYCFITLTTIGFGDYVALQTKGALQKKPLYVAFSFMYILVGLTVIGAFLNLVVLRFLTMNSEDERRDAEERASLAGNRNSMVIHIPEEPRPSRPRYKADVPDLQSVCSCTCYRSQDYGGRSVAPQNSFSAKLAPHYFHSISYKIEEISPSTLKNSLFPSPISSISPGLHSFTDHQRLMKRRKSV
Sphingosine 1-phosphate receptor 1, sequence (P21453 whole entry): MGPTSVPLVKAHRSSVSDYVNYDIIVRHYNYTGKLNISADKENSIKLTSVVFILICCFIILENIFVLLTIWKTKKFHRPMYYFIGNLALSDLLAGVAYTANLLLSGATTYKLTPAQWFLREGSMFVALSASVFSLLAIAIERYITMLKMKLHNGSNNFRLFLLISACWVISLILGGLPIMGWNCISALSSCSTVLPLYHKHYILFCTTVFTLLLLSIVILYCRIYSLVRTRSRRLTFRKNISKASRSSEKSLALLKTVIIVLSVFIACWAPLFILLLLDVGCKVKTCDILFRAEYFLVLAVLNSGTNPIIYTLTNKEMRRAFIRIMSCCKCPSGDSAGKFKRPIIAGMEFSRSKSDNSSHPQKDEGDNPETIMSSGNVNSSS
Delta-type opioid receptor, sequence (P41143 whole entry): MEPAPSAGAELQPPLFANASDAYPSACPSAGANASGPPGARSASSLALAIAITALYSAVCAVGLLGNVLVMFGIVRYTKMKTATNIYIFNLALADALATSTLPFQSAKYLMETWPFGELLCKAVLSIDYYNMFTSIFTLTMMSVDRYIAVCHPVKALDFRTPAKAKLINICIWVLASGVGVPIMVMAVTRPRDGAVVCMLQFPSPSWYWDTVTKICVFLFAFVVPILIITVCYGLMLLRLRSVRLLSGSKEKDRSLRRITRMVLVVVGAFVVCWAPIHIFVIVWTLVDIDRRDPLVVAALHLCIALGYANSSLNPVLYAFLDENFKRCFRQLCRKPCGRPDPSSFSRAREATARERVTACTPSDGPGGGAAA

For `COC(=O)C1=C(C)N(CC(C)C)C(=S)NC1c1ccc(Cl)cc1` (stereo not given), the AC50 [1] was 24 µM (active), the AC50 ([1]; Cryptococcus neoformans) was 36.5 µM (active) and the AC50 [2] was > 60 µM (inactive).

With `C[C@H]1CN([C@@H](C)CO)C(=O)CCCn2nncc2CO[C@@H]1CN(C)C(=O)Nc1ccc(-c2cccs2)cc1` the AC50 [3] was 0.48 µM (active), the AC50 [4] was > 70 µM (inactive) and the AC50 [5] was 7.43 µM (active).

With `COc1ccc(C#Cc2cnc3c(c2)C(=O)N([C@@H](C)CO)C[C@H](C)[C@H](CN(C)CC2CCCC2)O3)cc1` the AC50 [6] was 25.2 µM (active).

For `COc1ccc(NC(=O)N2CC(=O)N3[C@H](C2)[C@H](c2ccc(/C=C/c4ccccc4)cc2)[C@@H]3CO)cc1`, the AC50 [3] was 5.72 µM (active), the AC50 [7] was 26 µM (active) and the AC50 [8] was 12.4 µM (active). For the same molecule, the AC50 [9] was 30.6 µM (active) and the AC50 [10] was 23.2 µM (active).

For `C[C@H](CO)N1C[C@H](C)[C@H](CN(C)C(=O)Nc2ccccc2)OCCCC[C@H](C)Oc2ccc(NC(=O)Nc3ccccc3)cc2C1=O`, the AC50 [11] was > 52 µM (inactive) and the AC50 [12] was 16.9 µM (active).

For `Fc1cccc(-c2nnc(SCc3ccccn3)o2)c1`, the IC90 [13] was 4 µM (active), the IC90 [14] was 4 µM (active) and the IC90 [15] was 125 µM (active).

For `Cc1nc(NC(=O)c2ccccc2)cc(N(C)C)n1`, the IC50 [16] was > 21.8 µM (inactive).

With `O=C(c1cnn(-c2ccc(Cl)cc2)c1C(F)(F)F)N1CCN(c2ncnc3ccsc23)CC1` the IC50 [17] was 1.05 µM (active), the IC50 [18] was > 50 µM (inactive) and the IC50 [19] was > 50 µM (inactive). The IC50 [20] was > 50 µM (inactive).

With `COc1ccccc1NC(=O)c1cccc(NC(=O)c2ccccc2)c1` the IC50 [21] was 1.41 µM (active) and the IC50 [22] was 0.064 µM (active).

In the case of `O=c1c2c(-c3ccc(Cl)cc3)csc2ncn1/N=C/c1cccc([N+](=O)[O-])c1O`, the IC50 [23] is reported as > 94.1 µM (inactive).
